A word on the IC50: it is the midpoint of a concentration-inhibition curve. Higher therefore signals a need for much substance. The term EC50 denotes the concentration needed to bring the measured effect to its halfway point.

IC50 and EC50 data for 17 compounds are collected here from patent US20260028336A1 (Arcus Biosciences, Inc., priority 2022, published 2026).

One test deals with T1, Cbl-b (Homo sapiens, UniProt Q13191).
T1 construct: biotin (biotinylated)
The test is described as follows: Cbl-b probe displacement HTRF binding assay. The note with it: 0.4 nM biotinylated Cbl-b, 150 nM BODIPY probe. The essentials:
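Biotinylated Cbl-b was preincubated with compound for 60 min at room temperature in HEPES/NaCl/Triton/TCEP/BSA buffer. BODIPY probe was added for 15 min, followed by streptavidin-terbium, and the HTRF signal was read. Displacement was normalised to DMSO and no-protein controls, and affinity was obtained from a four-parameter dose-response fit.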

A further test concerns Jurkat cells. Kind of test: IL-2 secretion assay in CD3/CD28-activated Jurkat cells (AlphaLISA). The test is classed as cell-based. To be noted: Homo sapiens, CD3/CD28 T Cell Activator, 24 h, IL-2 AlphaLISA. The essentials:
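Jurkat cells (50,000/well) were preincubated 1 h at 37° C with compound in a 16-point 1:2 series spanning 10 μM to 300 pM final. Cells were then activated with CD3/CD28 T cell activator, and secreted IL-2 was read by AlphaLISA. EC50 came from 4-parameter logistic fits.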
A general note: Alpha assays give light when donor and acceptor beads are brought close together.

T1 sequence (Q13191 whole entry, species assumed): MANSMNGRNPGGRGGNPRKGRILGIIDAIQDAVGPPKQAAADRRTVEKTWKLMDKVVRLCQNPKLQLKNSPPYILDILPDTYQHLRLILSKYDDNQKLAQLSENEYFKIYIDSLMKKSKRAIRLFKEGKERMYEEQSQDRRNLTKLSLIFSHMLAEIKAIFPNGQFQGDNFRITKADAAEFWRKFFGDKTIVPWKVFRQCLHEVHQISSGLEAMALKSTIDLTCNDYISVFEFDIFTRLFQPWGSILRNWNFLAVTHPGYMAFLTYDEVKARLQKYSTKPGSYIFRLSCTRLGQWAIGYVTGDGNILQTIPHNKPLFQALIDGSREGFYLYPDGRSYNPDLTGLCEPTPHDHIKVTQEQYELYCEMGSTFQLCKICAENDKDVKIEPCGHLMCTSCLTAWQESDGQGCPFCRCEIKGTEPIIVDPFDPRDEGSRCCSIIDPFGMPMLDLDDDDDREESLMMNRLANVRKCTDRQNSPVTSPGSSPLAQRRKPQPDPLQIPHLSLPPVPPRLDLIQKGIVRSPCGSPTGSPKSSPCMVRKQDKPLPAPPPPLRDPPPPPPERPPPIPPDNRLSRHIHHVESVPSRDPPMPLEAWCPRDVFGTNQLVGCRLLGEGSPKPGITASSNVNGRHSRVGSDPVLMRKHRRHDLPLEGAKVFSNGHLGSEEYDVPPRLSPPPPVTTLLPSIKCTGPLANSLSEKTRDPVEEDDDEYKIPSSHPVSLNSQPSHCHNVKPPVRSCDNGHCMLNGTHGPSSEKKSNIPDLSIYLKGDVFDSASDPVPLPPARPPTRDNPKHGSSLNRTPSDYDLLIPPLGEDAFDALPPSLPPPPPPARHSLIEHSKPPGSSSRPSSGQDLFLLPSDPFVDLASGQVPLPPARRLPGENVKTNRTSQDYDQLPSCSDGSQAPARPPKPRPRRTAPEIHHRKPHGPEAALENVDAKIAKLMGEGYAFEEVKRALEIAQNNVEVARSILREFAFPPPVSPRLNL

The compound `C[C@@H]1CN(Cc2nc3c(C(F)(F)F)cn(-c4cccc(C5(c6nncn6C)CC(F)(F)C5)c4)c(=O)c3[nH]2)CCO1` [Example 114, 5-[3-[3,3-difluoro-1-(4-methyl-1,2,4-triazol-3-yl)cyclobutyl]phenyl]-2-[[(2R)-2-methylmorpholin-4-yl]methyl]-7-(trifluoromethyl)-3H-imidazo[4,5-c]pyridin-4-one] displayed an IC50 at Cbl-b of 0.1 to 1 µM. The same compound came in with a concentration giving a half-maximal response (EC50) with Jurkat cells above 5 µM.
For `Cn1cnnc1C1(c2cccc(-n3cc(C(F)(F)F)c4nc(CN5CCC(F)(F)C5)[nH]c4c3=O)c2)CC(F)(F)C1` [Example 115, 5-[3-[3,3-difluoro-1-(4-methyl-1,2,4-triazol-3-yl)cyclobutyl]phenyl]-2-[(3,3-difluoropyrrolidin-1-yl)methyl]-7-(trifluoromethyl)-3H-imidazo[4,5-c]pyridin-4-one] the same measures were 1 to 5 µM and above 5 µM.
The corresponding values for `C[C@H]1CCCN(Cc2cc3ncn(-c4cccc(C5(c6nncn6C)CC(F)(F)C5)c4)c(=O)c3[nH]2)C1` [Example 120, 3-{3-[3,3-Difluoro-1-(4-methyl-4H-1,2,4-triazol-3-yl)cyclobutyl]phenyl}-6-{[(3S)-3-methylpiperidin-1-yl]methyl}-3H,4H,5H-pyrrolo[3,2-d]pyrimidin-4-one] are below 0.1 µM and 0.1 to 1 µM.
For `C[C@H]1CCCN(Cc2cc3c(C4CC4)cn(-c4cccc(C5(c6nnco6)CC(F)(F)C5)c4)c(=O)c3[nH]2)C1` [Example 121, 4-cyclopropyl-6-[3-[3,3-difluoro-1-(1,3,4-oxadiazol-2-yl)cyclobutyl]phenyl]-2-[[(3S)-3-methylpiperidin-1-yl]methyl]-1H-pyrrolo[2,3-c]pyridin-7-one] the same measures were 0.1 to 1 µM and 0.1 to 1 µM.
Compound `C[C@H]1CCCN(Cc2cc3c(C4CC4)cn(-c4cccc(C5(Cn6nccn6)CC(F)(F)C5)c4)c(=O)c3[nH]2)C1` [Example 122, 4-cyclopropyl-6-[3-[3,3-difluoro-1-(triazol-2-ylmethyl)cyclobutyl]phenyl]-2-[[(3S)-3-methylpiperidin-1-yl]methyl]-1H-pyrrolo[2,3-c]pyridin-7-one] came in with an IC50 on Cbl-b of 0.1 to 1 µM. The EC50 in the test with Jurkat cells was in the range of 0.1 to 1 µM.
Consider `C[C@H]1CCCN(Cc2cc3c(C4CC4)cn(-c4cccc(C5(Cn6ccnn6)CC(F)(F)C5)c4)c(=O)c3[nH]2)C1` [Example 123, 4-cyclopropyl-6-[3-[3,3-difluoro-1-(triazol-1-ylmethyl)cyclobutyl]phenyl]-2-[[(3S)-3-methylpiperidin-1-yl]methyl]-1H-pyrrolo[2,3-c]pyridin-7-one], for which the 50% inhibitory concentration (IC50) at Cbl-b lay within 0.1 to 1 µM. The compound further yielded an EC50 with Jurkat cells of 0.1 to 1 µM.
Regarding `C[C@H]1CCCN(Cc2cc3c(C4CC4)cn(-c4cccc(C5(Cn6cccn6)CC(F)(F)C5)c4)c(=O)c3[nH]2)C1` [Example 124], at Cbl-b, the half-inhibitory concentration (IC50) was in the range of 0.1 to 1 µM. Moreover, the EC50 with Jurkat cells is 0.1 to 1 µM.
The compound `Cc1nnc(C2(c3cccc(-n4cc(C5CC5)c5cc(CN6CCC[C@H](C)C6)[nH]c5c4=O)c3)CC(F)(F)C2)n1C` [Example 125, 4-cyclopropyl-6-[3-[1-(4,5-dimethyl-1,2,4-triazol-3-yl)-3,3-difluorocyclobutyl]phenyl]-2-[[(3S)-3-methylpiperidin-1-yl]methyl]-1H-pyrrolo[2,3-c]pyridin-7-one] yielded an IC50 on Cbl-b of 1 to 5 µM. The compound further gave an EC50 in the test on Jurkat cells of 1 to 5 µM.
Regarding `C[C@H]1CCCN(Cc2cc3c(C4CC4)cn(-c4cccc([C@]5(c6nccn6C)C[C@H](F)C5)c4)c(=O)c3[nH]2)C1` [Example 126, 4-cyclopropyl-6-(3-((1r,3S)-3-fluoro-1-(1-methyl-1H-imidazol-2-yl)cyclobutyl)phenyl)-2-(((S)-3-methylpiperidin-1-yl)methyl)-1,6-dihydro-7H-pyrrolo[2,3-c]pyridin-7-one], the 50% inhibitory concentration (IC50) at Cbl-b was below 0.1 µM. The 50% effective concentration (EC50) with Jurkat cells is below 0.1 µM.
`C[C@H]1CCCN(Cc2cc3c(C4CC4)cn(-c4cccc(C5(c6ncco6)CC(F)(F)C5)c4)c(=O)c3[nH]2)C1` [Example 127, 4-cyclopropyl-6-[3-[3,3-difluoro-1-(1,3-oxazol-2-yl)cyclobutyl]phenyl]-2-[[(3S)-3-methylpiperidin-1-yl]methyl]-1H-pyrrolo[2,3-c]pyridin-7-one] showed an IC50 on Cbl-b of 0.1 to 1 µM. In the test with Jurkat cells, the EC50 lay in the range of 0.1 to 1 µM.
As for `C[C@H]1CCCN(Cc2cc3c(C4CC4)cn(-c4cccc(C5(c6nccn6C)CC(F)(F)C5)c4)c(=O)c3[nH]2)C1` [Example 128, 4-cyclopropyl-6-[3-[3,3-difluoro-1-(1-methylimidazol-2-yl)cyclobutyl]phenyl]-2-[[(3S)-3-methylpiperidin-1-yl]methyl]-1H-pyrrolo[2,3-c]pyridin-7-one], on Cbl-b, the half-inhibitory concentration (IC50) is below 0.1 µM. The same compound had an EC50 in the test with Jurkat cells of 0.1 to 1 µM.
The corresponding values for `C[C@H]1CCCN(Cc2cc3c(C4CC4)cn(-c4cccc([C@]5(c6nncn6C)C[C@@H](F)C5)c4)c(=O)c3[nH]2)C1` [Example 129, cis-4-cyclopropyl-6-[3-[3-fluoro-1-(4-methyl-1,2,4-triazol-3-yl)cyclobutyl]phenyl]-2-[[(3S)-3-methylpiperidin-1-yl]methyl]-1H-pyrrolo[2,3-c]pyridin-7-one] are below 0.1 µM and below 0.1 µM.
The corresponding values for `C[C@H]1CCCN(Cc2cc3c(C4CC4)cn(-c4cccc([C@]5(c6nncn6C)C[C@H](F)C5)c4)c(=O)c3[nH]2)C1` [Example 130, trans-4-cyclopropyl-6-[3-[3-fluoro-1-(4-methyl-1,2,4-triazol-3-yl)cyclobutyl]phenyl]-2-[[(3S)-3-methylpiperidin-1-yl]methyl]-1H-pyrrolo[2,3-c]pyridin-7-one] are below 0.1 µM and below 0.1 µM.
The corresponding values for `Cn1nccc1-c1c[nH]c2c(=O)n(-c3cccc([C@]4(c5nncn5C)C[C@@H](C)C4)c3)cc(C3CC3)c12` [Example 132, 4-Cyclopropyl-3-(1-methyl-1H-pyrazol-5-yl)-6-{3-[(1R,3S)-3-methyl-1-(4-methyl-4H-1,2,4-triazol-3-yl)cyclobutyl]phenyl}-1H,6H,7H-pyrrolo[2,3-c]pyridin-7-one] are below 0.1 µM and 1 to 5 µM.
At Cbl-b, `Cn1nncc1-c1c[nH]c2c(=O)n(-c3cccc([C@]4(c5nncn5C)C[C@@H](C)C4)c3)cc(C3CC3)c12` [Example 133, 4-Cyclopropyl-3-(1-methyl-1H-1,2,3-triazol-5-yl)-6-{3-[(1R,3S)-3-methyl-1-(4-methyl-4H-1,2,4-triazol-3-yl)cyclobutyl]phenyl}-1H,6H,7H-pyrrolo[2,3-c]pyridin-7-one] yielded an IC50 below 0.1 µM. Also, the half-maximal effective concentration (EC50) with Jurkat cells was above 5 µM.
On Cbl-b, `Cn1cnnc1C1(c2cccc(-n3cc(C(F)(F)F)c4c(C#N)c[nH]c4c3=O)c2)CC2(CC2)C1` [Example 137, 6-{3-[5-(4-Methyl-4H-1,2,4-triazol-3-yl)spiro[2.3]hexan-5-yl]phenyl}-7-oxo-4-(trifluoromethyl)-1H,6H,7H-pyrrolo[2,3-c]pyridine-3-carbonitrile] showed a half-inhibitory concentration (IC50) below 0.1 µM. Besides, in the test with Jurkat cells, the EC50 lay in the range of 1 to 5 µM.
For `Cn1cnnc1[C@]1(c2cccc(-n3cc(C(F)(F)F)c4cn[nH]c4c3=O)c2)C[C@H](C)C1` [Example 140, 6-{3-[(1R,3S)-3-Methyl-1-(4-methyl-4H-1,2,4-triazol-3-yl)cyclobutyl]phenyl}-4-(trifluoromethyl)-1H,6H,7H-pyrazolo[3,4-c]pyridin-7-one] the same measures were below 0.1 µM and 0.1 to 1 µM.
